Results on 21 molecules are retold here after US20250276983A1, “COMPOUNDS AND METHODS FOR MODULATING HER2” (IAMBIC THERAPEUTICS, INC., priority 2022, published 2025).

Holding throughout (format): cell-based
The subject of one experiment is BaF3_EGFRWT cells. Kind of experiment: Cell growth inhibition assay, BaF3_EGFRWT. To be noted: 72 h, 80 ng/mL recombinant human EGF, 3 days treatment, CellTiterGlo 2.0, read-out: EGFR WT IC50 (nM), cell growth inhibition.
A further experiment has as its system BaF3_HER2WT cells. Kind of experiment: Cell growth inhibition assay, BaF3_HER2WT. The settings on record: 72 h, 3 days treatment, CellTiterGlo 2.0, read-out: HER2 WT IC50 (nM), cell growth inhibition.
Another experiment concerns BaF3_HER2YVMA cells. Put plainly: Cell growth inhibition assay, BaF3_HER2YVMA. The settings on record: 72 h, BaF3_HER2YVMA cells, 3 days treatment, CellTiterGlo 2.0; read-out: HER2-YVMA IC50 (nM), cell growth inhibition.

Regarding `Cc1cc(Nc2ncnn3ccc(C4CCN(C(=O)C#CCN(C)C)CC4)c23)ccc1Oc1ccn2ncnc2c1` [Example 64, 1-(4-(4-((4-([1,2,4]triazolo[1,5-a]pyridin-7-yloxy)-3-methylphenyl)amino)pyrrolo[2,1-f][1,2,4]triazin-5-yl)piperidin-1-yl)-4-(dimethylamino)but-2-yn-1-one], the values for the IC50 in the experiment with BaF3_EGFRWT cells, in the experiment on BaF3_HER2WT cells and in the experiment with BaF3_HER2YVMA cells were 200 to 500 nM, less than 200 nM and less than 200 nM, respectively.

As to `Cc1cc(Nc2ncnn3ccc(C4CCN(C(=O)/C=C/C5CCCN5C)CC4)c23)ccc1Oc1ccn2ncnc2c1` (stereo not drawn) [Example 65, (E)-1-(4-(4-((4-([1,2,4]triazolo[1,5-a]pyridin-7-yloxy)-3-methylphenyl)amino)pyrrolo[2,1-f][1,2,4]triazin-5-yl)piperidin-1-yl)-3-(1-methylpyrrolidin-2-yl)prop-2-en-1-one], the values for the IC50 in the experiment with BaF3_EGFRWT cells, in the experiment with BaF3_HER2WT cells and with BaF3_HER2YVMA cells were 1500 to 5000 nM, less than 200 nM and less than 200 nM, respectively.

Consider `Cc1cc(Nc2ncnn3ccc(C4CN(C(=O)/C=C/C5CCCN5C)C4)c23)ccc1Oc1ccn2ncnc2c1` (stereo not drawn) [Example 66, (E)-1-(3-(4-((4-([1,2,4]triazolo[1,5-a]pyridin-7-yloxy)-3-methylphenyl)amino)pyrrolo[2,1-f][1,2,4]triazin-5-yl)azetidin-1-yl)-3-(1-methylpyrrolidin-2-yl)prop-2-en-1-one], for which the half-maximal inhibitory concentration (IC50) in the experiment on BaF3_EGFRWT cells is 1500 to 5000 nM; with BaF3_HER2WT cells, less than 200 nM; in the experiment on BaF3_HER2YVMA cells, less than 200 nM.

For `C=C(CN(C)C)C(=O)N1CC(c2ccn3ncnc(Nc4ccc(Oc5ccc6c(c5)ncn6C)c(C)c4)c23)C1` [Example 67, 2-((dimethylamino)methyl)-1-(3-(4-((3-methyl-4-((1-methyl-1H-benzo[d]imidazol-5-yl)oxy)phenyl)amino)pyrrolo[2,1-f][1,2,4]triazin-5-yl)azetidin-1-yl)prop-2-en-1-one], the IC50 with BaF3_EGFRWT cells is 500 to 1500 nM; in the experiment with BaF3_HER2WT cells, less than 200 nM; in the experiment with BaF3_HER2YVMA cells it was less than 200 nM.

For the molecule `Cc1cc(Nc2ncnn3ccc(N4CCCC(N(C)C(=O)/C=C/CN(C)C)C4)c23)ccc1Oc1ccn2ncnc2c1` (stereo not drawn) [Example 68, (E)-N-(1-(4-((4-([1,2,4]triazolo[1,5-a]pyridin-7-yloxy)-3-methylphenyl)amino)pyrrolo[2,1-f][1,2,4]triazin-5-yl)piperidin-3-yl)-4-(dimethylamino)-N-methylbut-2-enamide], the IC50 with BaF3_EGFRWT cells was 1500 to 5000 nM; with BaF3_HER2WT cells, less than 200 nM; with BaF3_HER2YVMA cells, less than 200 nM.

As to `C=CC(=O)N(C)C1CCCN(c2ccn3ncnc(Nc4ccc(Oc5ccn6ncnc6c5)c(C)c4)c23)C1` (stereo not drawn) [Example 69, N-(1-(4-((4-([1,2,4]triazolo[1,5-a]pyridin-7-yloxy)-3-methylphenyl)amino)pyrrolo[2,1-f][1,2,4]triazin-5-yl)piperidin-3-yl)-N-methylacrylamide], the values for the IC50 with BaF3_EGFRWT cells, in the experiment with BaF3_HER2WT cells and in the experiment on BaF3_HER2YVMA cells were 1500 to 5000 nM, less than 200 nM and 200 to 500 nM, respectively.

Take `Cc1cc(Nc2ncnn3ccc(N4CCC(N(C)C(=O)/C=C/CN(C)C)C4)c23)ccc1Oc1ccn2ncnc2c1` (stereo not drawn) [Example 70, (E)-N-(1-(4-((4-([1,2,4]triazolo[1,5-a]pyridin-7-yloxy)-3-methylphenyl)amino)pyrrolo[2,1-f][1,2,4]triazin-5-yl)pyrrolidin-3-yl)-4-(dimethylamino)-N-methylbut-2-enamide]: the IC50 with BaF3_EGFRWT cells was 1500 to 5000 nM; in the experiment with BaF3_HER2WT cells it was less than 200 nM; in the experiment with BaF3_HER2YVMA cells, less than 200 nM.

For the molecule `Cc1cc(Nc2ncnn3ccc(N4CC(NC(=O)/C=C/CN(C)C)C4)c23)ccc1Oc1ccn2ncnc2c1` [Example 71, (E)-N-(1-(4-((4-([1,2,4]triazolo[1,5-a]pyridin-7-yloxy)-3-methylphenyl)amino)pyrrolo[2,1-f][1,2,4]triazin-5-yl)azetidin-3-yl)-4-(dimethylamino)but-2-enamide], the figures for the half-inhibitory concentration (IC50) in the experiment with BaF3_EGFRWT cells, in the experiment on BaF3_HER2WT cells and in the experiment on BaF3_HER2YVMA cells were 1500 to 5000 nM, less than 200 nM and 200 to 500 nM, respectively.

Take `C=CC(=O)N(C)C1CCN(c2ccn3ncnc(Nc4ccc(Oc5ccn6ncnc6c5)c(C)c4)c23)C1` (stereo not drawn) [Example 72, N-(1-(4-((4-([1,2,4]triazolo[1,5-a]pyridin-7-yloxy)-3-methylphenyl)amino)pyrrolo[2,1-f][1,2,4]triazin-5-yl)pyrrolidin-3-yl)-N-methylacrylamide]: the IC50 was 1500 to 5000 nM in the experiment with BaF3_EGFRWT cells, less than 200 nM in the experiment with BaF3_HER2WT cells and less than 200 nM with BaF3_HER2YVMA cells.

In the case of `Cc1cc(Nc2ncnn3ccc(N4CCC(N(C)C(=O)/C=C/CN(C)C)CC4)c23)ccc1Oc1ccn2ncnc2c1` [Example 73, (E)-N-(1-(4-((4-([1,2,4]triazolo[1,5-a]pyridin-7-yloxy)-3-methylphenyl)amino)pyrrolo[2,1-f][1,2,4]triazin-5-yl)piperidin-4-yl)-4-(dimethylamino)-N-methylbut-2-enamide], the half-inhibitory concentration (IC50) with BaF3_EGFRWT cells was 1500 to 5000 nM; in the experiment with BaF3_HER2WT cells it was less than 200 nM; in the experiment on BaF3_HER2YVMA cells it was 500 to 1500 nM.

As to `C=CC(=O)N(C)C1CCN(c2ccn3ncnc(Nc4ccc(Oc5ccn6ncnc6c5)c(C)c4)c23)CC1` [Example 74, N-(1-(4-((4-([1,2,4]triazolo[1,5-a]pyridin-7-yloxy)-3-methylphenyl)amino)pyrrolo[2,1-f][1,2,4]triazin-5-yl)piperidin-4-yl)-N-methylacrylamide], the IC50 is 1500 to 5000 nM with BaF3_EGFRWT cells, less than 200 nM with BaF3_HER2WT cells and 500 to 1500 nM with BaF3_HER2YVMA cells.

Take `C=CC(=O)N1CCN(c2ccn3ncnc(Nc4ccc(Oc5ccn6ncnc6c5)c(C)c4)c23)CC12CC2` [Example 75, 1-(7-(4-((4-([1,2,4]triazolo[1,5-a]pyridin-7-yloxy)-3-methylphenyl)amino)pyrrolo[2,1-f][1,2,4]triazin-5-yl)-4,7-diazaspiro[2.5]octan-4-yl)prop-2-en-1-one]: the IC50 in the experiment on BaF3_EGFRWT cells is 500 to 1500 nM; in the experiment on BaF3_HER2WT cells, less than 200 nM; in the experiment with BaF3_HER2YVMA cells it was less than 200 nM.

In the case of `C=CC(=O)NC1CCCN(c2ccn3ncnc(Nc4ccc(Oc5ccn6ncnc6c5)c(C)c4)c23)C1` (stereo not drawn) [Example 76, N-(1-(4-((4-([1,2,4]triazolo[1,5-a]pyridin-7-yloxy)-3-methylphenyl)amino)pyrrolo[2,1-f][1,2,4]triazin-5-yl)piperidin-3-yl)acrylamide], the IC50 in the experiment with BaF3_EGFRWT cells is 1500 to 5000 nM; in the experiment with BaF3_HER2WT cells, less than 200 nM; in the experiment on BaF3_HER2YVMA cells, 500 to 1500 nM.

With `C=CC(=O)N1CC(N(C)c2ccn3ncnc(Nc4ccc(Oc5ccn6ncnc6c5)c(C)c4)c23)C1` [Example 77, 1-(3-((4-((4-([1,2,4]triazolo[1,5-a]pyridin-7-yloxy)-3-methylphenyl)amino)pyrrolo[2,1-f][1,2,4]triazin-5-yl)(methyl)amino)azetidin-1-yl)prop-2-en-1-one], the half-inhibitory concentration (IC50) fell in the range of 1500 to 5000 nM in the experiment with BaF3_EGFRWT cells, 200 to 500 nM in the experiment on BaF3_HER2WT cells and 1500 to 5000 nM with BaF3_HER2YVMA cells.

With `C=CC(=O)NC1CCN(c2ccn3ncnc(Nc4ccc(Oc5ccn6ncnc6c5)c(C)c4)c23)CC1` [Example 78, N-(1-(4-((4-([1,2,4]triazolo[1,5-a]pyridin-7-yloxy)-3-methylphenyl)amino)pyrrolo[2,1-f][1,2,4]triazin-5-yl)piperidin-4-yl)acrylamide], the values for the IC50 in the experiment with BaF3_EGFRWT cells, in the experiment on BaF3_HER2WT cells and in the experiment on BaF3_HER2YVMA cells were 1500 to 5000 nM, less than 200 nM and 200 to 500 nM, respectively.

With `C=CC(=O)NC1CCN(c2ccn3ncnc(Nc4ccc(Oc5ccn6ncnc6c5)c(C)c4)c23)C1` (stereo not drawn) [Example 79, N-(1-(4-((4-([1,2,4]triazolo[1,5-a]pyridin-7-yloxy)-3-methylphenyl)amino)pyrrolo[2,1-f][1,2,4]triazin-5-yl)pyrrolidin-3-yl)acrylamide], the IC50 with BaF3_EGFRWT cells is 1500 to 5000 nM; in the experiment with BaF3_HER2WT cells it was less than 200 nM; with BaF3_HER2YVMA cells it was 200 to 500 nM.

With `Cc1cc(Nc2ncnn3ccc(N4CCCN(C(=O)/C=C/CN5CCOCC5)CC4)c23)ccc1Oc1ccn2ncnc2c1` [Example 80, (E)-1-(4-(4-((4-([1,2,4]triazolo[1,5-a]pyridin-7-yloxy)-3-methylphenyl)amino)pyrrolo[2,1-f][1,2,4]triazin-5-yl)-1,4-diazepan-1-yl)-4-morpholinobut-2-en-1-one], the IC50 in the experiment with BaF3_EGFRWT cells is 1500 to 5000 nM; with BaF3_HER2WT cells it was less than 200 nM; with BaF3_HER2YVMA cells it was 1500 to 5000 nM.

Consider `Cc1cc(Nc2ncnn3ccc(N4CC(NC(=O)/C=C/CN5CCOCC5)C4)c23)ccc1Oc1ccn2ncnc2c1` [Example 81, (E)-N-(1-(4-((4-([1,2,4]triazolo[1,5-a]pyridin-7-yloxy)-3-methylphenyl)amino)pyrrolo[2,1-f][1,2,4]triazin-5-yl)azetidin-3-yl)-4-morpholinobut-2-enamide], for which the 50% inhibitory concentration (IC50) fell in the range of 1500 to 5000 nM with BaF3_EGFRWT cells, 200 to 500 nM in the experiment with BaF3_HER2WT cells and 1500 to 5000 nM with BaF3_HER2YVMA cells.

`Cc1cc(Nc2ncnn3ccc(C4CN(C(=O)/C=C/CN5CCC(F)(F)C5)C4)c23)ccc1Oc1ccn2ncnc2c1` [Example 84, (E)-1-(3-(4-((4-([1,2,4]triazolo[1,5-a]pyridin-7-yloxy)-3-methylphenyl)amino)pyrrolo[2,1-f][1,2,4]triazin-5-yl)azetidin-1-yl)-4-(3,3-difluoropyrrolidin-1-yl)but-2-en-1-one]: the 50% inhibitory concentration (IC50) with BaF3_EGFRWT cells is 1500 to 5000 nM; with BaF3_HER2WT cells it was less than 200 nM; with BaF3_HER2YVMA cells it was 200 to 500 nM.

In the case of `Cc1cc(Nc2ncnn3ccc(C4CN(C(=O)/C=C/CN5CCC(F)(F)CC5)C4)c23)ccc1Oc1ccn2ncnc2c1` [Example 85, (E)-1-(3-(4-((4-([1,2,4]triazolo[1,5-a]pyridin-7-yloxy)-3-methylphenyl)amino)pyrrolo[2,1-f][1,2,4]triazin-5-yl)azetidin-1-yl)-4-(4,4-difluoropiperidin-1-yl)but-2-en-1-one], the figures for the IC50 in the experiment on BaF3_EGFRWT cells, in the experiment with BaF3_HER2WT cells and in the experiment on BaF3_HER2YVMA cells were 1500 to 5000 nM, less than 200 nM and less than 200 nM, respectively.

With `Cc1cc(Nc2c(C#N)cnn3ccc(C4CN(C(=O)/C=C/CN(C)C)C4)c23)ccc1Oc1ccn2ncnc2c1` [Example 86, (E)-4-((4-([1,2,4]triazolo[1,5-a]pyridin-7-yloxy)-3-methylphenyl)amino)-5-(1-(4-(dimethylamino)-but-2-enoyl)azetidin-3-yl)pyrrolo[1,2-b]pyridazine-3-carbonitrile], the 50% inhibitory concentration (IC50) with BaF3_EGFRWT cells was 1500 to 5000 nM; in the experiment with BaF3_HER2WT cells it was 1500 to 5000 nM; with BaF3_HER2YVMA cells, greater than 5000 nM.
